In article PMC12518639, “Apomorphine is a novel necroptosis inhibitor targeting mixed lineage kinase domain-like protein oligomerization” (Cell Death Discovery, 2025):

Experiments:
[1] = system: THP-1 cells; test: PI uptake assay after TBZ treatment; format: cell-based; conditions: Homo sapiens; THP-1, TBZ, 8 h
Method: To identify potential inhibitors of the necroptosis pathway targeting MLKL or the process of p-MLKL pore formation on the membrane, we screened a library of 2150 compounds, including FDA-approved drugs and those in phase 1–3 clinical trials, using THP-1-HMGB1-Lucia™ cells expressing the HMGB1-luciferase fusion protein. The cells were treated with a necroptosis-inducing mixture containing TNF-α, BV6, and Z-VAD-FMK (TBZ) in addition to the compound library (Fig. 1A). The supernatants were harvested to measure luciferase activities for necroptosis. The luciferase activities of cell supernatants treated with TBZ alone were considered as the maximum release (100%) of HMGB1-luciferase. NEC-1, a known RIP1 inhibitor used in both humans and mice, was used as a positive control. An initial screening was performed to identify compounds that reduced luciferase activity to within 20% of the TBZ-treated supernatant, and 72 compounds (S1–S72) were selected (Table S1). Among these compounds were four known necroptosis inhibitors of pazopanib (S10), bardoxolone (S16), ponatinib (S17), and dabrafenib (S31), indicating the reliability of this screening assay. […]
PI uptake assays were performed in triplicate to evaluate pore formation on the plasma membrane. […] Fluorescence was recorded using a Varioskan Flash 3001 plate reader (Thermo Fisher Scientific, Waltham, MA, USA).

[2] = biological target: T1, Wt-hMLKL (Homo sapiens, UniProt Q8NB16); test: SPR binding to Wt-hMLKL; conditions: for Kd: SPR, CM5 chip, 25 °C
T1 construct: purchased Abcam ab241453
T1 sequence (Q8NB16 1-471): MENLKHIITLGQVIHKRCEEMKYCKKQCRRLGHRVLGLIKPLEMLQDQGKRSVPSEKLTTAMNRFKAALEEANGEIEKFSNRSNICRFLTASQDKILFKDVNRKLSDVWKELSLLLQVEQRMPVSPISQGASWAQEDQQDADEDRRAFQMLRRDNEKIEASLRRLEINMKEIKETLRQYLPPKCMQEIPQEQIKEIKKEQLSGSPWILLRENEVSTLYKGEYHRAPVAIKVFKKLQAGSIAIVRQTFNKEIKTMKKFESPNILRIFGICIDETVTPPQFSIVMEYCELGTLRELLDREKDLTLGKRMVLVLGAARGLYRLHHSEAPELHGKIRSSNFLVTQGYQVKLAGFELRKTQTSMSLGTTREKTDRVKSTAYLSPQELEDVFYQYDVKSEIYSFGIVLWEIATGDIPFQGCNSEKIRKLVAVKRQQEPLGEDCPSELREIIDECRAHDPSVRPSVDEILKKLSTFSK
Excerpt: The hMLKL plasmid (RC213152, OriGene, Rockville, MD, USA), and recombinant Wt-hMLKL (ab241453, Abcam) and Wt-mMLKL (MBS1379843, MyBioSource, San Diego, CA, USA) proteins were purchased. Nt-hMLKL (2–154), Nt-mMLKL (1–180), and Ct-hMLKL (183–471) were generated using the pBT7-N-His vector. Nt-hMLKL^C86A, Nt-hMLKL^F148A, -hMLKL^C86A/L89A/D94A, and Nt-hMLKL^R145A/R146A/F148A/M150A were generated using the Site-directed Mutagenesis Kit (EZ004S, Enzynomics, S. Korea). These constructs were subcloned into pBT7-N-His and pET-15b plasmid vectors. E. coli BL21 cells transformed with the cloned expression vectors were cultured in LB medium and supplemented with 100 μg/mL ampicillin until an OD at 600 nm of 0.5–0.6 was reached. The cultures were induced by 1 mM IPTG (367-93-1, Sigma-Aldrich). The cells were lysed and centrifuged. The clear supernatants were subjected to Ni-NTA affinity chromatography (175018169, QIAGEN, Hilden, Germany). Plasmids encoding mMLKL (1–464)–gyrase fusion constructs were kindly provided by Prof. James Murphy (Cell Signalling and Cell Death Division, The Walter and Eliza Hall Institute of Medical Research, Parkville, Victoria 3052, Australia).
The interactions of Wt-hMLKL, Wt-mMLKL, Nt-mMLKL, Nt, and Ct-hMLKL proteins with Re-APO or Ox-APO were detected through SPR analysis using Biacore™ T200 (Cytiva, Marlborough, MA, USA). Each MLKL protein was immobilized on a CM5 sensor chip. To derive the Rligand values, coupling processes were performed based on the molecular weights of the MLKL protein (MW ligand) and Re-APO or Ox-APO (MW analyte). Re-APO or Ox-APO was injected into an HBS buffer (10 mM HEPES, 150 mM NaCl, 3.4 mM EDTA, and 0.005% Tween 20, pH 7.4) at 25 °C (10 μL/min flow rate). Sensorgrams were recorded and analyzed in real-time using the control software in the BIAcore T200 system. All data were analyzed using the BIA evaluation software (Cytiva).

IC50 [1] [nM] | Structure (SMILES) | Kd [2] [nM] | fold stronger binding than Re-APO ([2]; from KD values)
5700 | CN1CCc2cccc3c2[C@@H]1Cc1ccc(O)c(O)c1-3 [S62, (6aS)-6-methyl-5,6,6a,7-tetrahydro-4H-dibenzo[de,g]quinoline-10,11-diol] |  | 
 | CN1CCc2cccc3c2C1Cc1ccc(O)c(O)c1-3 (stereo not shown) [Re-APO] | 244 | 
 | CN1CCc2cccc3c4c(cc1c23)C=CC(=O)C4=O [Ox-APO] | 5 | ~ 50 fold
